Data published in the NIST ThermoML archive (doi:10.1007/s10765-019-2484-6).

Assay: xn = mol fraction of the nth substance listed
Settings: Gas, Loschmidt cell combined with holographic interferometry

Which binary diffusion coefficient (293.09 K, 500 kPa, x2 = 0.659) does the source give for `C` [methane] + CCC here?
The binary diffusion coefficient was 2.12e-06 m2/s.

And the binary diffusion coefficient (293.12 K, 500 kPa, x2 = 0.3331)?
Its binary diffusion coefficient is 2.19e-06 m2/s.

What about the binary diffusion coefficient (293.12 K, 500 kPa, x2 = 0.492) of the same compound?
Its binary diffusion coefficient is 2.07e-06 m2/s.

What about the binary diffusion coefficient (293.13 K, 500 kPa, x2 = 0.833) of the same compound?
The binary diffusion coefficient was 1.97e-06 m2/s.

What about the binary diffusion coefficient (293.16 K, 500 kPa, x2 = 0.5) of the same compound?
Its binary diffusion coefficient is 2.19e-06 m2/s.

What about the binary diffusion coefficient (293.18 K, 500 kPa, x2 = 0.159) of the same compound?
Its binary diffusion coefficient is 2.36e-06 m2/s.

What about the binary diffusion coefficient (293.19 K, 50 kPa, x2 = 0.5) of the same compound?
The binary diffusion coefficient was 2.36e-06 m2/s.

What about the binary diffusion coefficient (293.21 K, 200 kPa, x2 = 0.5) of the same compound?
The binary diffusion coefficient was 5.78e-06 m2/s.

And the binary diffusion coefficient (293.29 K, 100 kPa, x2 = 0.5)?
The binary diffusion coefficient was 1.18e-05 m2/s.

And the binary diffusion coefficient (293.31 K, 100 kPa, x2 = 0.4973)?
Its binary diffusion coefficient is 1.21e-05 m2/s.

What about the binary diffusion coefficient (293.31 K, 100 kPa, x2 = 0.6665) of the same compound?
Its binary diffusion coefficient is 1.18e-05 m2/s.

What about the binary diffusion coefficient (293.31 K, 200 kPa, x2 = 0.6665) of the same compound?
The binary diffusion coefficient was 5.81e-06 m2/s.

And the binary diffusion coefficient (293.32 K, 100 kPa, x2 = 0.159)?
Its binary diffusion coefficient is 1.24e-05 m2/s.

And the binary diffusion coefficient (293.32 K, 100 kPa, x2 = 0.3335)?
Its binary diffusion coefficient is 1.18e-05 m2/s.

And the binary diffusion coefficient (293.33 K, 100 kPa, x2 = 0.833)?
The binary diffusion coefficient was 1.18e-05 m2/s.

And the binary diffusion coefficient (293.33 K, 200 kPa, x2 = 0.159)?
Its binary diffusion coefficient is 6.16e-06 m2/s.

And the binary diffusion coefficient (293.33 K, 200 kPa, x2 = 0.3335)?
Its binary diffusion coefficient is 5.7e-06 m2/s.

And the binary diffusion coefficient (293.33 K, 200 kPa, x2 = 0.833)?
The binary diffusion coefficient was 5.77e-06 m2/s.

What about the binary diffusion coefficient (293.34 K, 200 kPa, x2 = 0.498) of the same compound?
Its binary diffusion coefficient is 5.81e-06 m2/s.

What about the binary diffusion coefficient (313.28 K, 500 kPa, x2 = 0.4995) of the same compound?
The binary diffusion coefficient was 2.71e-06 m2/s.

What about the binary diffusion coefficient (313.52 K, 500 kPa, x2 = 0.832) of the same compound?
Its binary diffusion coefficient is 2.73e-06 m2/s.

And the binary diffusion coefficient (313.54 K, 500 kPa, x2 = 0.1665)?
The binary diffusion coefficient was 2.8e-06 m2/s.

And the binary diffusion coefficient (313.55 K, 100 kPa, x2 = 0.8295)?
The binary diffusion coefficient was 1.37e-05 m2/s.

What about the binary diffusion coefficient (313.55 K, 500 kPa, x2 = 0.332) of the same compound?
Its binary diffusion coefficient is 2.79e-06 m2/s.

What about the binary diffusion coefficient (313.55 K, 500 kPa, x2 = 0.5) of the same compound?
The binary diffusion coefficient was 2.72e-06 m2/s.

What about the binary diffusion coefficient (313.56 K, 100 kPa, x2 = 0.3295) of the same compound?
The binary diffusion coefficient was 1.4e-05 m2/s.

And the binary diffusion coefficient (313.56 K, 100 kPa, x2 = 0.4995)?
The binary diffusion coefficient was 1.31e-05 m2/s.

What about the binary diffusion coefficient (313.57 K, 200 kPa, x2 = 0.4995) of the same compound?
The binary diffusion coefficient was 6.73e-06 m2/s.

What about the binary diffusion coefficient (313.57 K, 200 kPa, x2 = 0.6665) of the same compound?
The binary diffusion coefficient was 6.92e-06 m2/s.

And the binary diffusion coefficient (313.58 K, 100 kPa, x2 = 0.159)?
The binary diffusion coefficient was 1.52e-05 m2/s.

What about the binary diffusion coefficient (313.58 K, 200 kPa, x2 = 0.5) of the same compound?
Its binary diffusion coefficient is 6.91e-06 m2/s.

What about the binary diffusion coefficient (313.59 K, 100 kPa, x2 = 0.5) of the same compound?
Its binary diffusion coefficient is 1.38e-05 m2/s.

What about the binary diffusion coefficient (313.59 K, 200 kPa, x2 = 0.3295) of the same compound?
The binary diffusion coefficient was 6.98e-06 m2/s.

And the binary diffusion coefficient (313.59 K, 500 kPa, x2 = 0.6665)?
Its binary diffusion coefficient is 2.76e-06 m2/s.

What about the binary diffusion coefficient (313.6 K, 100 kPa, x2 = 0.6665) of the same compound?
The binary diffusion coefficient was 1.4e-05 m2/s.

What about the binary diffusion coefficient (313.6 K, 200 kPa, x2 = 0.159) of the same compound?
Its binary diffusion coefficient is 7.39e-06 m2/s.

And the binary diffusion coefficient (313.61 K, 200 kPa, x2 = 0.8295)?
The binary diffusion coefficient was 6.76e-06 m2/s.

Which binary diffusion coefficient (293.24 K, 50 kPa, x1 = 0.5) does the source give for `CCC` [propane] + O=C=O here?
Its binary diffusion coefficient is 1.89e-05 m2/s.

What about the binary diffusion coefficient (293.25 K, 100 kPa, x1 = 0.1665) of the same compound?
Its binary diffusion coefficient is 8.54e-06 m2/s.

And the binary diffusion coefficient (293.25 K, 200 kPa, x1 = 0.1665)?
The binary diffusion coefficient was 4.14e-06 m2/s.

What about the binary diffusion coefficient (293.27 K, 100 kPa, x1 = 0.333) of the same compound?
The binary diffusion coefficient was 8.31e-06 m2/s.

And the binary diffusion coefficient (293.27 K, 100 kPa, x1 = 0.833)?
The binary diffusion coefficient was 8.29e-06 m2/s.

What about the binary diffusion coefficient (293.27 K, 500 kPa, x1 = 0.1665) of the same compound?
Its binary diffusion coefficient is 1.59e-06 m2/s.

And the binary diffusion coefficient (293.28 K, 200 kPa, x1 = 0.333)?
The binary diffusion coefficient was 4.12e-06 m2/s.

And the binary diffusion coefficient (293.28 K, 200 kPa, x1 = 0.833)?
The binary diffusion coefficient was 4.06e-06 m2/s.

And the binary diffusion coefficient (293.3 K, 500 kPa, x1 = 0.333)?
Its binary diffusion coefficient is 1.71e-06 m2/s.

And the binary diffusion coefficient (293.31 K, 200 kPa, x1 = 0.4995)?
Its binary diffusion coefficient is 4.12e-06 m2/s.

And the binary diffusion coefficient (293.32 K, 100 kPa, x1 = 0.4995)?
The binary diffusion coefficient was 8.23e-06 m2/s.

What about the binary diffusion coefficient (293.32 K, 500 kPa, x1 = 0.833) of the same compound?
The binary diffusion coefficient was 1.51e-06 m2/s.

And the binary diffusion coefficient (293.33 K, 200 kPa, x1 = 0.6665)?
The binary diffusion coefficient was 4.06e-06 m2/s.

What about the binary diffusion coefficient (293.33 K, 500 kPa, x1 = 0.4995) of the same compound?
Its binary diffusion coefficient is 1.49e-06 m2/s.

What about the binary diffusion coefficient (293.36 K, 100 kPa, x1 = 0.6665) of the same compound?
The binary diffusion coefficient was 8.25e-06 m2/s.

What about the binary diffusion coefficient (293.37 K, 200 kPa, x1 = 0.5) of the same compound?
The binary diffusion coefficient was 4.06e-06 m2/s.

And the binary diffusion coefficient (293.39 K, 500 kPa, x1 = 0.5)?
Its binary diffusion coefficient is 1.54e-06 m2/s.

And the binary diffusion coefficient (293.41 K, 500 kPa, x1 = 0.6665)?
The binary diffusion coefficient was 1.52e-06 m2/s.

And the binary diffusion coefficient (293.47 K, 100 kPa, x1 = 0.5)?
Its binary diffusion coefficient is 8.23e-06 m2/s.

What about the binary diffusion coefficient (313.21 K, 200 kPa, x1 = 0.333) of the same compound?
The binary diffusion coefficient was 4.88e-06 m2/s.

And the binary diffusion coefficient (313.21 K, 500 kPa, x1 = 0.5)?
Its binary diffusion coefficient is 1.77e-06 m2/s.

What about the binary diffusion coefficient (313.22 K, 200 kPa, x1 = 0.5) of the same compound?
The binary diffusion coefficient was 4.77e-06 m2/s.

And the binary diffusion coefficient (313.23 K, 100 kPa, x1 = 0.6665)?
The binary diffusion coefficient was 9.67e-06 m2/s.

What about the binary diffusion coefficient (313.23 K, 200 kPa, x1 = 0.833) of the same compound?
Its binary diffusion coefficient is 4.77e-06 m2/s.

What about the binary diffusion coefficient (313.25 K, 100 kPa, x1 = 0.833) of the same compound?
Its binary diffusion coefficient is 9.53e-06 m2/s.

What about the binary diffusion coefficient (313.26 K, 100 kPa, x1 = 0.333) of the same compound?
Its binary diffusion coefficient is 9.71e-06 m2/s.

And the binary diffusion coefficient (313.26 K, 200 kPa, x1 = 0.6665)?
Its binary diffusion coefficient is 4.79e-06 m2/s.

What about the binary diffusion coefficient (313.27 K, 500 kPa, x1 = 0.333) of the same compound?
The binary diffusion coefficient was 1.94e-06 m2/s.

What about the binary diffusion coefficient (313.27 K, 500 kPa, x1 = 0.6665) of the same compound?
Its binary diffusion coefficient is 1.85e-06 m2/s.

And the binary diffusion coefficient (313.27 K, 500 kPa, x1 = 0.833)?
Its binary diffusion coefficient is 1.86e-06 m2/s.

What about the binary diffusion coefficient (313.28 K, 100 kPa, x1 = 0.1665) of the same compound?
The binary diffusion coefficient was 9.79e-06 m2/s.

And the binary diffusion coefficient (313.28 K, 200 kPa, x1 = 0.1665)?
Its binary diffusion coefficient is 4.8e-06 m2/s.

And the binary diffusion coefficient (313.29 K, 200 kPa, x1 = 0.4995)?
The binary diffusion coefficient was 4.8e-06 m2/s.

And the binary diffusion coefficient (313.31 K, 500 kPa, x1 = 0.1665)?
The binary diffusion coefficient was 1.95e-06 m2/s.

And the binary diffusion coefficient (313.32 K, 100 kPa, x1 = 0.4995)?
Its binary diffusion coefficient is 9.71e-06 m2/s.
